In patent US8569336B2, “Compounds for the treatment of inflammatory disorders” (priority 2008, dated 2013):
Read-outs that look alike come from different tables or passages of the source.

Columns and labels:
[1] = test system: TNF-α production from human whole blood; experiment: Inhibition of TNF-α production from human whole blood (hWBA), LPS stimulated, ELISA; format: cell-based; settings: Homo sapiens, TNF-α by ELISA, read-out: hWBA (IC50)
[2] = molecular target: T1, purified catalytic domain of recombinant human TACE (rhTACEc) (Homo sapiens, UniProt P78536, N452Q/S266A); experiment: TACE kinetic assay: cleavage of internally quenched peptide substrate TNF-FRET 2 (Ki); format: biochemical; settings: TNF-FRET 2 substrate
T1 construct: 6xHis (C); made in house; host or cells: baculovirus/Hi5 insect cells
T1 sequence (P78536 215-477 S266A/N452Q): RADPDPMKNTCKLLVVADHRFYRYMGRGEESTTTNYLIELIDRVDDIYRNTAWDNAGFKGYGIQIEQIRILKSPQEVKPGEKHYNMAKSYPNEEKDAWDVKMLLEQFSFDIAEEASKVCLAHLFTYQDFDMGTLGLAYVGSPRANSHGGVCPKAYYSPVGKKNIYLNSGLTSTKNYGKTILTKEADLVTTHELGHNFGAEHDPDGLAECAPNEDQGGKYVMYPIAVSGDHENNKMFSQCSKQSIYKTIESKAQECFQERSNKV

[3] = LPS-stimulated human whole blood
[4] = human whole blood diluted 1:1, LPS stimulated
[5] = 3.5 h, human whole blood diluted 1:1, LPS stimulated, 3.5 h

Row | Compound | IC50 [1, 3] [nM] | Ki ([2]; read-out: Ki) [nM] | IC50 [1, 4] [nM] | Ki ([2]; Ki) [nM] | IC50 [1, 5] [nM]
1 | COc1ccc2c(c1)C(=O)N(C[C@@]1(c3cc4nc(-c5cnc(N6CCCC6)nc5)ccc4o3)NC(=O)NC1=O)C2 [Compound 1505] | 1290 | 0.6 |  |  | 
2 | COc1ccc2c(c1)C(=O)N(C[C@@]1(c3cc4cc(C)nc(C)c4o3)NC(=O)NC1=O)C2 [Compound 204] | 4090 | 0.667 |  |  | 
3 | COc1ccc2c(c1)C(=O)N(C[C@@]1(c3cc4c(o3)CCN(C(N)=O)C4)NC(=O)NC1=O)C2 [Compound 318] | 646 | 5.62 |  |  | 
4 | O=C1NC(=O)[C@](CN2Cc3ccc(OCC4CC4)c(F)c3C2=O)(c2cc3cc4c(c(F)c3o2)C(=O)NC4)N1 [Compound 2493] |  | 0.49 | 349 |  | 
5 | COc1ccc2c(c1)C(=O)N(C[C@@]1(c3cc4c(Cl)nc(N)nc4o3)NC(=O)NC1=O)C2 [Compound 2296] |  |  | ≥ 10000 | 4.59 | 
6 | COc1ccc2c(c1)C(=O)N(C[C@@]1(c3cc4nc(N5CCCNC5=O)ccc4o3)NC(=O)NC1=O)C2 [Compound 2134] |  | 0.467 |  |  | 115
7 | COc1ccc2c(c1)C(=O)N(C[C@@]1(c3cc4cc(CN(C)C)ccc4o3)NC(=O)NC1=O)C2 [Compound 2176] |  | 0.267 |  |  | 1040
8 | COc1ccc2c(c1)C(=O)N(C[C@@]1(c3cc4cc(C(=O)N(C)CCN(C)C)c(F)cc4o3)NC(=O)NC1=O)C2 [Compound 1275] |  | 0.88 |  |  | 441
9 | COc1ccc2c(c1)C(=O)N(C[C@@]1(c3cc4cc(-c5cccc(O)c5)ncc4o3)NC(=O)NC1=O)C2 [Compound 2242] |  | 0.566 |  |  | 3390
10 | COc1ccc2c(c1)C(=O)N(C[C@@]1(c3cc4c(NCc5ccccc5)ccnc4o3)NC(=O)NC1=O)C2 [Compound 2248] |  |  |  | 1.61 | 233
11 | COc1ccc2c(c1)C(=O)N(C[C@@]1(c3cc4nc(N5CCNC5=O)ccc4o3)NC(=O)NC1=O)C2 [Compound 2127] |  | 0.435 |  |  | 221
12 | COc1ccc2c(c1)C(=O)N(C[C@@]1(c3cc4cc(CO)ccc4o3)NC(=O)NC1=O)C2 [Compound 2178] |  | 0.546 |  |  | 518
13 | COc1ccc2c(c1)C(=O)N(C[C@@]1(c3cc4cnc(C#N)cc4o3)NC(=O)NC1=O)C2 [Compound 322] | 759 | 0.67 |  |  | 
14 | COc1ccc2c(c1)C(=O)N(C[C@@]1(c3cc4cc(-c5cn[nH]c5)ccc4o3)NC(=O)NC1=O)C2 [Compound 2201] |  | 0.345 |  |  | 294
15 | COc1ccc2c(c1)C(=O)N(C[C@@]1(c3cc4c(o3)CNCC4)NC(=O)NC1=O)C2 [Compound 2266] |  | 7.83 |  |  | 860
16 | CCN1CCN(c2ccc3oc([C@]4(CN5Cc6ccc(OC)c(F)c6C5=O)NC(=O)NC4=O)cc3n2)C[C@@H]1C [Compound 1294] |  | 1.1 |  |  | 275
17 | COc1ccc2c(c1)C(=O)N(C[C@@]1(c3cc4nc(N(c5cn[nH]c5)C5CCNCC5)ccc4o3)NC(=O)NC1=O)C2 [Compound 1722] | 93 |  |  | 0.39 | 
18 | COc1ccc2c(c1)C(=O)N(C[C@@]1(c3cc4nc(Nc5ccccn5)ccc4o3)NC(=O)NC1=O)C2 [Compound 2128] |  | 0.888 |  |  | 1910
19 | CCCN1CC=C(c2nc3cc([C@]4(CN5Cc6ccc(OC)c(F)c6C5=O)NC(=O)NC4=O)oc3cc2F)CC1 [Compound 1322] | 96 | 0.51 |  |  | 

Row | Compound | IC50 [1, 3] [nM] | Ki ([2]; read-out: Ki) [nM] | IC50 [1, 4] [nM] | Ki ([2]; Ki) [nM] | IC50 [1, 5] [nM]
20 | COc1ccc2c(c1F)C(=O)N(C[C@@]1(c3cc4nc(N5CCOCC5)c(F)cc4o3)NC(=O)NC1=O)C2 [Compound 1913] | 657 |  |  | 0.53 | 
21 | COc1ccc2c(c1)C(=O)N(C[C@@]1(c3cc4nc(-c5cc[nH]n5)ccc4o3)NC(=O)NC1=O)C2 [Compound 2103] |  | 0.342 |  |  | 375
22 | COc1ccc2c(c1)C(=O)N(C[C@@]1(c3cc4cc(-c5cccc(C#N)c5)ncc4o3)NC(=O)NC1=O)C2 [Compound 2432] |  | 0.92 | 1720 |  | 
23 | COc1ccc2c(c1F)C(=O)N(C[C@@]1(c3cc4cc(F)c(C)nc4o3)NC(=O)NC1=O)C2 [Compound 1313] | 686 | 0.83 |  |  | 
24 | COc1ccc2c(c1)C(=O)N(C[C@@]1(c3cc4cnc(N)cc4o3)NC(=O)NC1=O)C2 [Compound 2282] |  | 0.422 | 268 |  | 
25 | COc1ccc2c(c1)C(=O)N(C[C@@]1(c3cn4c5c(sc4n3)CN(C)CC5)NC(=O)NC1=O)C2 [Compound 503] | 1830 | 4.23 |  |  | 
26 | COc1ccc2c(c1)C(=O)N(C[C@@]1(c3cc4cc(-c5cc(N)n[nH]5)ccc4o3)NC(=O)NC1=O)C2 [Compound 2246] |  | 0.523 |  |  | 110
27 | COc1ccc2c(c1)C(=O)N(C[C@@]1(c3cc4ncc(C(N)=O)cc4o3)NC(=O)NC1=O)C2 [Compound 2459] |  |  | 173 | 0.367 | 
28 | COc1ccc2c(c1)C(=O)N(C[C@@]1(c3cc4cc(C(=O)NCCN)c(F)cc4o3)NC(=O)NC1=O)C2 [Compound 1274] |  | 0.5 |  |  | 142
29 | COc1ccc2c(c1)C(=O)N(C[C@@]1(c3cc4nc(-c5ccnc(N6CCNCC6)c5)ccc4o3)NC(=O)NC1=O)C2 [Compound 1720] | 224 |  |  | 0.31 | 
30 | COc1ccc2c(c1)C(=O)N(C[C@@]1(c3cc4cc(C(=O)NCCN(C)CCNC(=O)OC(C)(C)C)c(F)cc4o3)NC(=O)NC1=O)C2 [Compound 1278] |  | 1.8 |  |  | 3260
31 | COc1ccc2c(c1)C(=O)N(C[C@@]1(c3cc4nc(Nc5ccc(-c6cn[nH]c6)cn5)ccc4o3)NC(=O)NC1=O)C2 [Compound 1732] | 333 | 1.91 |  |  | 
32 | COc1ccc2c(c1)C(=O)N(C[C@@]1(c3cc4cc(CN5CCNCC5)ccc4o3)NC(=O)NC1=O)C2 [Compound 2186] |  | 0.539 |  |  | 345
33 | COc1ccc2c(c1)C(=O)N(C[C@@]1(c3cc4cc(C(=O)NCCN(C)CCN)c(F)cc4o3)NC(=O)NC1=O)C2 [Compound 1279] |  | 1 |  |  | 504
34 | COc1ccc2c(c1)C(=O)N(C[C@@]1(c3cc4cc(NC(N)=O)ccc4o3)NC(=O)NC1=O)C2 [Compound 2221] |  | 0.099 |  |  | 143
35 | COc1ccc2c(c1F)C(=O)N(C[C@@]1(c3cc4cnc(C)nc4o3)NC(=O)NC1=O)C2 [Compound 304] | 300 | 1.23 |  |  | 
36 | COc1cc2c(cc1F)CN(C[C@@]1(c3cc4cnccc4o3)NC(=O)NC1=O)C2=O [Compound 2311] |  | 1.72 | 942 |  | 
37 | COc1ccc2c(c1)C(=O)N(C[C@@]1(c3cc4cc(-c5cncc(O)c5)ncc4o3)NC(=O)NC1=O)C2 [Compound 2244] |  | 0.35 |  |  | 365
38 | COc1ccc2c(c1F)C(=O)N(C[C@@]1(c3cc4c(C)nc(C)cc4o3)NC(=O)NC1=O)C2 [Compound 202] | 553 | 0.568 |  |  | 

Row | Compound | IC50 [1, 3] [nM] | Ki ([2]; read-out: Ki) [nM] | IC50 [1, 4] [nM] | Ki ([2]; Ki) [nM] | IC50 [1, 5] [nM]
39 | COc1ccc2c(c1F)C(=O)N(C[C@@]1(c3cc4nc(-c5cn[nH]c5)ccc4o3)NC(=O)NC1=O)C2 [Compound 2121] |  | 0.263 |  |  | 102
40 | COc1ccc2c(c1)C(=O)N(C[C@@]1(c3cc4cc(-c5cnccc5OC)ccc4o3)NC(=O)NC1=O)C2 [Compound 2198] |  | 0.637 |  |  | 1890
41 | COc1ccc2c(c1)C(=O)N(C[C@@]1(c3cc4ccc(C(=O)NC[C@H](C)O)cc4o3)NC(=O)NC1=O)C2 [Compound 2415] |  | 0.51 | 452 |  | 
42 | COc1ccc2c(c1)C(=O)N(C[C@@]1(c3cc4nc(Nc5c(C)noc5C)ccc4o3)NC(=O)NC1=O)C2 [Compound 2133] |  | 0.635 |  |  | 460
43 | COc1ccc2c(c1F)C(=O)N(C[C@@]1(c3cc4cc5sc(N)nc5cc4o3)NC(=O)NC1=O)C2 [Compound 1743] | 236 |  |  | 0.14 | 
44 | O=C1NC(=O)C(CN2Cc3ccccc3C2=O)(c2ccc(Br)cc2)N1 (stereo not shown) [Compound 1296] |  | 7 |  |  | > 10000
45 | COc1ccc2c(c1)C(=O)N(C[C@@]1(c3cc4cc(CNCC5CCNCC5)ccc4o3)NC(=O)NC1=O)C2 [Compound 2183] |  | 1.02 |  |  | 526
46 | COc1ccc2c(c1)C(=O)N(C[C@@]1(c3cc4c(s3)CCN(C)C4)NC(=O)NC1=O)C2 [Compound 2265] |  | 8.77 |  |  | 1440
47 | COc1cc2c(cc1OC)C(=O)N(C[C@]1(c3cc4cnccc4o3)NC(=O)NC1=O)C2 [Compound 201] | 6660 | 149 |  |  | 
48 | COc1ccc2c(c1)C(=O)N(C[C@@]1(c3cc4[nH]c(=O)ccc4o3)NC(=O)NC1=O)C2 [Compound 2317] |  | 0.375 | 542 |  | 
49 | COc1ccc2c(c1)C(=O)N(C[C@@]1(c3cc4ccc(C(=O)N5CCNC(=O)C5)cc4o3)NC(=O)NC1=O)C2 [Compound 2422] |  |  | 519 | 0.68 | 
50 | Cc1ccc2c(c1)C(=O)N(C[C@@]1(c3cc4ncccc4o3)NC(=O)NC1=O)C2 [Compound 1740] | > 10000 |  |  | 2.91 | 
51 | COc1ccc2c(c1F)C(=O)N(C[C@@]1(c3cc4nc(Nc5cccnc5)ccc4o3)NC(=O)NC1=O)C2 [Compound 1728] | 280 | 0.47 |  |  | 
52 | CCOC(=O)c1ccc2cc([C@]3(CN4Cc5ccc(OC)cc5C4=O)NC(=O)NC3=O)oc2c1 [Compound 2409] |  | 0.33 | 1870 |  | 
53 | COc1ccc2c(c1)C(=O)N(C[C@@]1(c3cc4ncc(C5=NCCN5)cc4o3)NC(=O)NC1=O)C2 [Compound 1942] | 3880 |  |  | 2.09 | 
54 | COc1ccc2c(c1)C(=O)N(C[C@@]1(c3cc4c(o3)CCN(CC(N)=O)C4)NC(=O)NC1=O)C2 [Compound 2268] |  |  |  | 0.702 | 252
55 | COc1ccc2c(c1F)C(=O)N(C[C@@]1(c3cc4c(ccc5sc(N)nc54)o3)NC(=O)NC1=O)C2 [Compound 1741] | 231 | 0.22 |  |  | 
56 | COc1ccc2c(c1)C(=O)N(C[C@@]1(c3cc4nc(NC(=O)[C@@H](C)O)ccc4o3)NC(=O)NC1=O)C2 [Compound 2137] |  | 0.36 |  |  | 310
